In the SangsterLogP compilation:

Test: method code SF-AS, from PMID: 43458

SMILES | logP
CCCCCCCCOC(=O)c1cc(O)c(O)c(O)c1 | 3.66
CC(C)COC(=O)c1cc(O)c(O)c(O)c1 | 2.46
CCCCOC(=O)c1cc(O)c(O)c(O)c1 | 2.41
CCCOC(=O)c1cc(O)c(O)c(O)c1 | 1.8

More lines, now with the values ahead:

logP | SMILES
1.3 | CCOC(=O)c1cc(O)c(O)c(O)c1
0.86 | COC(=O)c1cc(O)c(O)c(O)c1
